From patent US4559323A, “A41030 Antibiotics” (Eli Lilly and Company, priority 1984, dated 1985)
Where two headings read alike, the source gives them in different places.

Assays:
[1] = Electrometric titration (pKa); assay type: physicochemical; conditions: electrometric titration in 66% dimethylformamide in water
[2] = Solubility in solvents; assay type: physicochemical; conditions: solvents as named
From the text: The seven antibiotic factors are recovered from the fermentation and are obtained as a mixture, the A41030 complex. It will be recognized that the ratio of the factors in the A41030 complex will vary, depending upon the fermentation conditions used. The individual factors […], and G are separated and isolated as individual compounds, as hereinafter described.

[3] = tested on: Clostridium difficile; assay type: cell-based
From the text: The A41030 antibiotic factors A, B, C, D, E, F, and G, are also active against a number of strains of Clostridium difficile, as determined by the agar-dilution method.

[4] = tested on: Bacteroides fragilis; test: Agar-dilution MIC (anaerobes); assay type: cell-based; conditions: Table 14
From the text: (§1) The agar-dilution procedure described by the International Collaborative study (ICS) group was used to determine the minimum inhibitory concentrations (MIC's).

[5] = tested on: Peptococcus asaccharolyticus; test: Agar-dilution MIC (anaerobes); assay type: cell-based; conditions: Table 14; Peptococcus asaccharolyticus 1302
[6] = tested on: Bacteroides melaninogenicus; test: Agar-dilution MIC (anaerobes); assay type: cell-based; conditions: Table 14
[7] = tested on: Peptostreptococcus anaerobius; test: Agar-dilution MIC (anaerobes); assay type: cell-based; conditions: Table 14; Peptostreptococcus anaerobius 1428
[8] = tested on: Peptostreptococcus intermedius; test: Agar-dilution MIC (anaerobes); assay type: cell-based; conditions: Table 14; Peptostreptococcus intermedius 1264
[9] = tested on: Hemophilus influenzae; test: Agar-dilution MIC; assay type: cell-based; conditions: Table 17, 24 hours
[10] = tested on: Fusobacterium necrophorum; test: Agar-dilution MIC (anaerobes); assay type: cell-based; conditions: Table 14; Fusobacterium necrophorum 6054A
[11] = tested on: Streptococcus pneumoniae; test: Agar-dilution MIC; assay type: cell-based; conditions: Table 17; 24 hours; Streptococcus pneumoniae Park I
From the text: as §1

[12] = tested on: Streptococcus pyogenes; test: Agar-dilution MIC; assay type: cell-based; conditions: Table 17; 24 hours; Streptococcus pyogenes C203
From the text: as §1

[13] = tested on: Staphylococcus epidermidis; test: Agar-dilution MIC; assay type: cell-based; conditions: Table 17, 24 hours
From the text: as §1

[14] = tested on: Streptococcus sp. (Group D); test: Agar-dilution MIC; assay type: cell-based; conditions: Table 17, 24 hours
From the text: as §1

[15] = tested on: Staphylococcus aureus; test: Agar-dilution MIC; assay type: cell-based
[16] = tested on: Bacteroides vulgatis; test: Agar-dilution MIC (anaerobes); assay type: cell-based; conditions: Table 14; Bacteroides vulgatis 1211
[17] = tested on: B. thetaiotaomicron; assay type: cell-based; conditions: Table 14; Bacteroides thetalotaomicron 1438
From the text: as §1

[18] = tested on: Bacteroides corrodens; test: Agar-dilution MIC (anaerobes); assay type: cell-based; conditions: Table 14; Bacteroides corrodens 1874
[19] = tested on: Clostridium septicum; test: Agar-dilution MIC (anaerobes); assay type: cell-based; conditions: Table 14; Clostridium septicum 1128
[20] = tested on: Clostridium perfringens; assay type: cell-based; conditions: Table 14; Clostridium perfringens 81
[21] = tested on: Peptococcus prevoti; test: Agar-dilution MIC (anaerobes); assay type: cell-based; conditions: Table 14; Peptococcus prevoti 1281
[22] = tested on: Fusobacterium symbiosum; test: Agar-dilution MIC (anaerobes); assay type: cell-based; conditions: Table 14; Fusobacterium symbiosum 1470
[23] = tested on: Escherichia coli; test: Agar-dilution MIC; assay type: cell-based; conditions: Table 17; 24 hours; Escherichia coli TEM
[24] = tested on: Klebsiella pneumoniae; test: Agar-dilution MIC; assay type: cell-based; conditions: Table 17; 24 hours; Klebsiella pneumoniae X26
[25] = tested on: Propionibacterium acnes; test: Agar-dilution MIC (anaerobes); assay type: cell-based; conditions: Table 14; Propionibacterium acnes 79
From the text: Antibiotic A41030 factors A, B and C have also been tested and found to be active against a genus of anaerobic bacteria identified as Propionibacterium acnes.

[26] = tested on: Salmonella typhi; test: Agar-dilution MIC; assay type: cell-based; conditions: Table 17, 24 hours
[27] = tested on: Eubacterium aerofaciens; test: Agar-dilution MIC (anaerobes); assay type: cell-based; conditions: Table 14; Eubacterium aerofaciens 1235
[28] = tested on: S. pneumoniae; test: Experimental bacterial infection in mice, subcutaneous ED50; assay type: in vivo; conditions: two doses subcutaneously
Protocol: (§2) All of the A41030 factors tested have shown in vivo antimicrobial activity against experimental bacterial infections. When two doses of test compound were administered subcutaneously to mice in illustrative infections, the activity observed is measured as an ED50 value [effective dose in mg./kg. to protect fifty percent of the test animals: See Warren Wick, et al., J. Bacteriol. 81, 233-235 (1961)].

[29] = tested on: S. pyogenes; test: as above; assay type: in vivo; conditions: two doses subcutaneously
Protocol: as §2

[30] = tested on: Staph. aureus; test: as above; assay type: in vivo; conditions: two doses subcutaneously
Protocol: as §2

With A41030 factor D the “pKa, first titratable group” value [1] was “about 5.5”, the “pKa, second titratable group” value [1] was about 7.6 and the Solubility [2] was “soluble in the same solvents as factor A”. The MIC [3] was 0.5 µg/mL, the MIC ([3]; Table 16, C. difficile 78) was at most 0.25 µg/mL and the MIC ([3]; Table 16, C. difficile 107B) was at most 0.25 µg/mL. The MIC ([3]; Table 16, C. difficile 111F) was at most 0.25 µg/mL, the MIC ([3]; Table 16, C. difficile 1153) was 1.0 µg/mL and the MIC ([3]; Table 16, C. difficile 2634) was 0.5 µg/mL. The MIC ([3]; Table 16, C. difficile 3424-5B) was 0.5 µg/mL, the MIC ([3]; Table 16, C. difficile 3816) was 0.5 µg/mL and the MIC ([3]; Table 16, C. difficile 3950) was 0.5 µg/mL. It also gave an MIC ([3]; Table 16, C. difficile 6890) of 0.5 µg/mL, an MIC ([3]; Table 16, C. difficile 8484) of at most 0.25 µg/mL and an MIC ([3]; Table 16, C. difficile A-194) of at most 0.25 µg/mL. For the same substance, the MIC ([3]; Table 16, C. difficile A-195) was at most 0.25 µg/mL, the MIC ([3]; Table 16, C. difficile A-196) was 0.5 µg/mL and the MIC ([3]; Table 16, C. difficile A-279) was at most 0.25 µg/mL. For the same substance, the MIC ([3]; Table 16, C. difficile A-280) was at most 0.25 µg/mL, the MIC ([3]; Table 16, C. difficile A-281) was 0.5 µg/mL and the MIC ([3]; Table 16, C. difficile WAL-2112) was at most 0.25 µg/mL. For the same substance, the MIC ([3]; Table 16, C. difficile WAL-3657) was at most 0.25 µg/mL, the MIC ([3]; Table 16, C. difficile WAL-4268) was at most 0.25 µg/mL and the MIC ([4]; Bacteroides fragilis 111) was 32 µg/mL. It also gave an MIC ([4]; Bacteroides fragilis 1877) of 32 µg/mL, an MIC ([4]; Bacteroides fragilis 1936B) of 32 µg/mL and an MIC [5] of at most 0.125 µg/mL. The MIC ([6]; Bacteroides melaninogenicus 1856/28) was over 64 µg/mL, the MIC ([6]; Bacteroides melaninogenicus 2736) was 0.5 µg/mL and the MIC [7] was 0.5 µg/mL. It also gave an MIC [8] of 1.0 µg/mL, an MIC ([9]; Haemophilus influenzae 76) of 8 µg/mL and an MIC ([9]; Haemophilus influenzae C.L.) of 8 µg/mL. For the same substance, the MIC [10] was at most 0.125 µg/mL, the MIC [11] was 0.5 µg/mL and the MIC [12] was 0.5 µg/mL. For the same substance, the MIC ([13]; Staphylococcus epidermidis EPI1) was 0.25 µg/mL, the MIC ([13]; Staphylococcus epidermidis EPI2) was 1 µg/mL and the MIC ([14]; Streptococcus sp. Group D 9960) was 1 µg/mL. It also gave an MIC ([14]; Streptococcus sp. Group D X66) of 1 µg/mL, an MIC [15] of 0.25 µg/mL and an MIC ([15]; Table 17, 24 hours, Staphylococcus aureus S13E) of 0.25 µg/mL. The MIC ([15]; Table 17, 24 hours, Staphylococcus aureus V41) was 0.25 µg/mL, the MIC ([15]; Table 17, 24 hours, Staphylococcus aureus X400) was 0.25 µg/mL and the MIC [16] was 32 µg/mL. For the same substance, the MIC [17] was 32 µg/mL, the MIC [18] was 32 µg/mL and the MIC [19] was 0.25 µg/mL. It also gave an MIC [20] of 0.5 µg/mL, an MIC [21] of 0.25 µg/mL and an MIC [22] of 0.5 µg/mL. For the same substance, the MIC [23] was 64 µg/mL, the MIC [24] was 128 µg/mL and the MIC [25] was 0.25 µg/mL. The MIC ([26]; Salmonella typhi 1335) was over 128 µg/mL, the MIC ([26]; Salmonella typhi X514) was over 128 µg/mL and the MIC [27] was 0.5 µg/mL. For the same substance, the ED50 [28] was 2.21 mg/kg, the ED50 [29] was 3.24 mg/kg and the ED50 [30] was 0.339 mg/kg.
